Broadly, the Ki is a measure of affinity in units of concentration, obtained from inhibition or displacement.

T1 sequence (P06493 whole entry): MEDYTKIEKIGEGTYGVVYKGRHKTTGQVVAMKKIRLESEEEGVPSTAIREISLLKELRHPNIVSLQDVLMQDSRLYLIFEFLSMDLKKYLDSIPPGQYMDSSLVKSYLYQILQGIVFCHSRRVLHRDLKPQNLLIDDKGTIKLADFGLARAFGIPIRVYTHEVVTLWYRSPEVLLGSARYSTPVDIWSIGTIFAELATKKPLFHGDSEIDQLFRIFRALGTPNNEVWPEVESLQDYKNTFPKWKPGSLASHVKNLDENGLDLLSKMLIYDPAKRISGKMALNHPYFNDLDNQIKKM
T1 sequence (P14635 whole entry partner): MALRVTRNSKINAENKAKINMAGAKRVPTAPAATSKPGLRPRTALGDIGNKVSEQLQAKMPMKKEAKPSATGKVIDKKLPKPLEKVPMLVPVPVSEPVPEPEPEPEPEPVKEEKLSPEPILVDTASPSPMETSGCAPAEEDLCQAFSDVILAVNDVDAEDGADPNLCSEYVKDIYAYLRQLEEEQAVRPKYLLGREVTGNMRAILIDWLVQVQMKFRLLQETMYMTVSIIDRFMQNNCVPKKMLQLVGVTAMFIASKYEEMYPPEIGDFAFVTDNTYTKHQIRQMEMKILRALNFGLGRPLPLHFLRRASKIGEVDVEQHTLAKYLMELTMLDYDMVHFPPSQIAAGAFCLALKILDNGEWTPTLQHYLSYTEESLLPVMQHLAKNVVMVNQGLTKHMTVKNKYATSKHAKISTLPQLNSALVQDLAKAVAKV

This assay addresses T1, recombinant human CDK1/Cyclin B complex (Homo sapiens, UniProt P06493).
T1 construct: made in house; host or cells: High Five insect cells (baculovirus) for CDK1/GST-cyclin B; E. coli M15 for the Rb substrate
The experiment in a line: CDK1/Cyclin B kinase assay (FlashPlate or HTRF). In kind it is biochemical. Conditions: Rb protein substrate, Ki=IC50/(1+[S]/Km). The method, then:
To determine inhibition of CDK1 activity, either FlashPlate™ (NEN™-Life Science Products) assay or HTRF Homogeneous Time Resolved Fluorescence assay was performed. Both types of kinase assays were carried out using recombinant human CDK1/Cyclin B complex. GST-cyclinB (GST-cycB) and CDK1 cDNA clones in baculovirus vectors were provided by Dr. W. Harper at the Baylor College of Medicine, Houston, Tex. Proteins were co-expressed in High Five™ insect cells and the complex was purified on glutathione Sepharose resin (Pharmacia, Piscataway, N.J.) as previously described (Harper, J. W. et al. Cell 1993, 75, 805-816). A 6×-Histidine tagged truncated form of retinoblastoma (Rb) protein (amino acid 386-928) was used as the substrate for the CDK1/Cyclin B assay (the expression plasmid was provided by Dr. Veronica Sullivan, Department of Molecular Virology, Roche Research Centre, Welwyn Garden City, United Kingdom). The Rb protein is a natural substrate for phosphorylation by CDK1 (see Herwig and Strauss Eur. J. Biochem. Vol. 246 (1997) pp. 581-601 and the references cited therein). The expression of the 62Kd protein was under the control of an IPTG inducible promoter in an M15 E. coli strain. Cells were lysed by sonication and purification was carried out by binding lysates at pH 8.0 to a Ni-chelated agarose column pretreated with 1 mM imidazole. The resin was then washed several times with incrementally decreasing pH buffers to pH 6.0, and eluted with 500 mM imidazole. Eluted protein was dialysed against 20 mM HEPES [4-(2-hydroxyethyl)-1-piperazineethanesulfonic acid, sodium salt] pH 7.5, 30% glycerol, 200 mM NaCl, and 1 mM DTT (dithiothreitol). Purified Rb fusion protein stocks were quantitated for protein concentration, aliquoted, and stored at −70° C.
For the FlashPlate kinase asasy, 96-well FlashPlates were coated with Rb protein at 10 μg/ml, using 100 μl per well. Plates were incubated at 4° C. overnight or at room temperature for 3 hours on a shaker. To control for nonspecific phosphorylation, one row of wells was coated with 100 μl/well coating buffer (20 mM HEPES, 0.2 M NaCl). Plates were then washed twice with wash buffer (0.01% Tween 20 in phosphate-buffered saline). Compounds to be tested (“test compounds”) were added to the wells at 5× final concentration. Reactions were initiated by immediate addition of 40 μl reaction mix (25 mM HEPES, 20 mM MgCl2, 0.002% Tween 20, 2 mM DTT, 1 μM ATP, 4 nM 33P-ATP) and a sufficient amount of enzyme to give counts that were at least 10-fold above background. Plates were incubated at room temperature on a shaker for 30 minutes. Plates were washed four times with the wash buffer, sealed, and counted on the TopCount scintillation counter (Packard Instrument Co., Downers Grove, Ill.]. The percent inhibition of Rb phosphorylation, which is a measure of the inhibition of CDK activity, was determined according to the following formula:
[formula] where “test compound” refers to the average counts per minute of the test duplicates, “nonspecific” refers to the average counts per minute when no CDK1/Cyclin B, etc., was added, and “total” refers to the average counts per minute when no compound was added. The IC50 value is the concentration of test compound that reduces by 50% the protein-kinase induced incorporation of the radiolabel under the test conditions described. The value of the inhibitor constant Ki is calculated by the following: Ki=IC50/(1+[S]/Km), where [S] is the ATP concentration and Km is Michaelis constant.
The Homogeneous Time Resolved Fluorescence (HTRF) kinase assay was carried out in 96-well polypropylene plates (BD Biosciences, Bedford, Mass.). Test compounds were first dissolved in DMSO, and then diluted in kinase assay buffer 1 (25 mM HEPES, pH7.0, 8 mM MgCl2, 1.5 mM DTT, and 162 μM ATP) with DMSO concentration at 15%. The CDK1/Cyclin B enzyme was diluted in kinase assay buffer 2 (25 mM HEPES, pH 7.0, 8 mM MgCl2, 0.003% Tween 20, 0.045% BSA, 1.5 mM DTT, and 0.338 μM Rb protein). […]
As for `O=C1N=C(N[C@@H](CO)Cc2ccccc2)S/C1=C\c1ccc2ncccc2c1` [Example 20, 2-((R)-1-Hydroxymethyl-2-phenyl-ethylamino)-5-[1-quinolin-6-yl-meth-(Z)-ylidene]-thiazol-4-one], the inhibitory constant (Ki) is 604 nM.

`O=C1N=C(NCC(c2ccccc2)N2CCOCC2)S/C1=C\c1ccc2ncccc2c1` (stereo not drawn) [Example 35, 2-(2-Morpholin-4-yl-2-phenyl-ethylamino)-5-[1-quinolin-6-yl-meth-(Z)-ylidene]-thiazol-4-one]: the Ki was found to be 3300 nM. As to `COc1ccc(OC)c(CCNC2=NC(=O)/C(=C/c3ccc4ncccc4c3)S2)c1` [Example 5, 2-[2-(2,5-Dimethoxy-phenyl)-ethylamino]-5-[1-quinolin-6-yl-meth-(Z)-ylidene]-thiazol-4-one], the Ki amounted to 838 nM. As for `COc1ccccc1CNC1=NC(=O)/C(=C/c2ccc3ncccc3c2)S1` [Example 10, 2-(2-Methoxy-benzylamino)-5-[1-quinolin-6-yl-meth-(Z)-ylidene]-thiazol-4-one], the Ki was found to be 148 nM. In the case of `O=C1N=C(NC(CO)c2cccs2)S/C1=C\c1ccc2ncccc2c1` (stereo not drawn) [Example 25, 2-(2-Hydroxy-1-thiophen-2-yl-ethylamino)-5-[1-quinolin-6-yl-meth-(Z)-ylidene]-thiazol-4-one], the Ki is 596 nM. Turning to `O=C1N=C(N[C@@H]2c3ccccc3C[C@@H]2O)S/C1=C\c1ccc2ncccc2c1` [Example 30, 2-((1R,2S)-2-Hydroxy-indan-1-ylamino)-5-[1-quinolin-6-yl-meth-(Z)-ylidene]-thiazol-4-one], the Ki is 3000 nM.

Values taken from US7326786B2, “Thiazolinone unsubstituted quinolines” (Hoffmann-La Roche Inc., priority 2004, dated 2008).
